{"source": "patent US20230338609A1", "about": "“MEDICAL DEVICES AND MATERIALS COMPRISING BIODEGRADABLE POLYESTERS” (AMICOAT AS, priority 2020, published 2023)", "key": {"[1]": {"tested_on": "Candida albicans ATCC90028 - reference strain", "format": "cell-based", "method": "(§1) Yeast and filamentous fungal MIC were performed in MOPS buffered RPMI 1640 medium (MOPS buffer obtained from Sigma Aldrich Ltd., RPMI 1640 obtained from Invitrogen Ltd, Paisley, Scotland). The yeast inocula were in the range 7.5×10^2-4×10^3 CFU/mL and the filamentous fungi approximately 8×10^3-1×10^5 CFU/mL"}, "[2]": {"tested_on": "Candida parapsilosis ATCC90018 - reference strain", "format": "cell-based", "method": "as §1"}, "[3]": {"tested_on": "Trichophyton mentagrophytes - G.R. Micro collection", "format": "cell-based", "method": "as §1"}, "[4]": {"tested_on": "Microsporum canis - G.R. Micro collection", "format": "cell-based", "method": "as §1"}, "[5]": {"tested_on": "Candida tropicalis ATCC750 - reference strain", "format": "cell-based", "method": "as §1"}, "[6]": {"tested_on": "Aspergillus niger - G.R. Micro collection", "format": "cell-based", "method": "as §1"}, "[7]": {"tested_on": "Candida albicans ATCC24433 - reference strain", "format": "cell-based", "method": "as §1"}, "[8]": {"tested_on": "Trichophyton interdigitale - G.R. Micro collection", "format": "cell-based", "method": "as §1"}, "[9]": {"tested_on": "Cryptococcus neoformans - G.R. Micro collection", "format": "cell-based", "method": "as §1"}, "[10]": {"tested_on": "Methicillin resistant Staphylococcus epidermidis (MRSE) strain ATCC 27626", "details": "ATCC 27626"}, "[11]": {"tested_on": "Escherichia coli ATCC32518 - β-lactamase positive type strain", "format": "cell-based", "text": "(§2) Cation-adjusted Mueller-Hinton broth (Oxoid Ltd., Basingstoke, UK and Trek Diagnostic Systems Ltd., East Grinstead, UK) (supplemented with 5% laked horse blood for Streptococcus spp., Corynebacterium jeikeium and Listeria monocytogenes) was used for aerobic bacteria, with an initial inoculum of approximately 10^5 colony-forming units (CFU)/mL."}, "[12]": {"tested_on": "Enterococcus faecalis high-level gentamicin-resistant clinical isolate", "format": "cell-based", "text": "as §2"}, "[13]": {"tested_on": "Streptococcus pyogenes - Macrolide (MLS) resistant clinical isolate", "format": "cell-based", "text": "as §2"}, "[14]": {"tested_on": "Listeria monocytogenes - antibiotic-susceptible clinical isolate", "format": "cell-based", "text": "as §2"}, "[15]": {"tested_on": "Enterococcus faecalis vancomycin-susceptible clinical isolate", "format": "cell-based", "text": "as §2"}, "[16]": {"tested_on": "Staphylococcus aureus ATCC 29213 - antibiotic-susceptible control strain", "format": "cell-based", "text": "as §2"}, "[17]": {"tested_on": "Enterococcus faecalis - ATCC 29212 antibiotic-susceptible control strain", "format": "cell-based", "text": "as §2"}, "[18]": {"tested_on": "Group G Streptococcus - macrolide-resistant clinical isolate", "format": "cell-based", "text": "as §2"}, "[19]": {"tested_on": "Pseudomonas aeruginosa ATCC27853 - antibiotic-susceptible type strain", "format": "cell-based", "text": "as §2"}, "[20]": {"tested_on": "Corynebacterium jeikeium - multi-drug resistant clinical isolate", "format": "cell-based", "text": "as §2"}, "[21]": {"tested_on": "Enterococcus faecalis vancomycin-resistant (VanA) clinical isolate", "format": "cell-based", "text": "as §2"}, "[22]": {"tested_on": "Staphylococcus epidermidis methicillin-resistant clinical isolate", "format": "cell-based", "text": "as §2"}, "[23]": {"tested_on": "Enterococcus faecium vancomycin-resistant (VanA) clinical isolate", "format": "cell-based", "text": "as §2"}, "[24]": {"tested_on": "EMRSA1 Staphylococcus aureus (MRSA) - SSCmec type 3", "format": "cell-based", "details": "EMRSA1 - SSCmec type 3", "text": "as §2"}, "[25]": {"tested_on": "MU50 Staphylococcus aureus (MRSA) - VISA type strain", "format": "cell-based", "text": "as §2"}, "[26]": {"tested_on": "Staphylococcus aureus ATCC 25923 - antibiotic-susceptible control strain", "format": "cell-based", "text": "as §2"}, "[27]": {"tested_on": "Propionibacterium acnes- antibiotic-resistant clinical isolate", "details": "P. acnes antibiotic-resistant"}, "C. albicans": {"tested_on": "C. albicans", "details": "Table 5"}, "[28]": {"tested_on": "Staphylococcus aureus FDA486", "test": "Murine skin infection model, topical treatment", "format": "in vivo", "details": "mice; 2% cream; three treatments at three hourly intervals; biopsy three hours after last", "method": "(§3) The skin of mice was infected with Staphylococcus aureus or Streptococcus pyogenes and subsequently given a total of three treatments at three hourly intervals. Three hours after the last treatment, skin biopsies were collected and the number of colony forming units (CFUs) present in the skin sample was determined. Results are shown in FIGS. 1 and 2, expressed as the number of colony forming units per mouse.\nas §3, with “3, 4” for “1”, “5” for “2,”"}, "[29]": {"tested_on": "Staphylococcus aureus, strain ATCC 25923", "details": "ATCC 25923"}, "[30]": {"tested_on": "Haemophilus influenzae β- lactamase negative ampicillin-resistant clinical isolate"}, "E. coli": {"tested_on": "E. coli", "details": "Table 5"}, "P. aeruginosa": {"tested_on": "P. aeruginosa", "details": "Table 5"}, "[31]": {"tested_on": "Salmonella sp - antibiotic-susceptible clinical isolate", "test": "MIC microbroth dilution (CLSI)", "format": "cell-based", "text": "as §2"}, "[32]": {"tested_on": "Shigella sp - antibiotic-susceptible clinical isolate", "test": "MIC microbroth dilution (CLSI)", "format": "cell-based", "text": "as §2"}, "[33]": {"tested_on": "Salmonella sp - multi-drug resistant clinical isolate", "test": "MIC microbroth dilution (CLSI)", "format": "cell-based", "text": "as §2"}}, "data": [{"compound": "CCCCCCNC(=O)[C@H](CCCNC(=N)N)NC(=O)[C@H](Cc1c(C(C)(C)C)[nH]c2c(C(C)(C)C)cc(C(C)(C)C)cc12)NC(=O)[C@@H](N)CCCNC(=N)N", "note": "[Compound 8]", "values": [{"measurement": "MIC", "setting": "[1]", "value": 4, "unit": "µg/mL"}, {"measurement": "MIC", "setting": "[2]", "value": 8, "unit": "µg/mL"}, {"measurement": "MIC", "setting": "[3]", "value": 4, "unit": "µg/mL"}, {"measurement": "MIC", "setting": "[4]", "value": 4, "unit": "µg/mL"}, {"measurement": "MIC", "setting": "[5]", "value": 4, "unit": "µg/mL"}, {"measurement": "MIC", "setting": "[6]", "value": 4, "unit": "µg/mL"}, {"measurement": "MIC", "setting": "[7]", "value": 8, "unit": "µg/mL"}, {"measurement": "MIC", "setting": "[8]", "value": 4, "unit": "µg/mL"}, {"measurement": "MIC", "setting": "[9]", "value": 2, "unit": "µg/mL"}, {"measurement": "MRSE (MIC)", "setting": "[10]", "value": "<1", "unit": "µg/mL"}, {"measurement": "MIC", "setting": "[11]", "value": 8, "unit": "µg/mL"}, {"measurement": "MIC", "setting": "[12]", "value": 8, "unit": "µg/mL"}, {"measurement": "MIC", "setting": "[13]", "value": 8, "unit": "µg/mL"}, {"measurement": "MIC", "setting": "[14]", "value": 8, "unit": "µg/mL"}, {"measurement": "MIC", "setting": "[15]", "value": 4, "unit": "µg/mL"}, {"measurement": "MIC", "setting": "[16]", "value": 4, "unit": "µg/mL"}, {"measurement": "MIC", "setting": "[17]", "value": 4, "unit": "µg/mL"}, {"measurement": "MIC", "setting": "[18]", "value": 8, "unit": "µg/mL"}, {"measurement": "MIC", "setting": "[19]", "value": 8, "unit": "µg/mL"}, {"measurement": "MIC", "setting": "[20]", "value": 2, "unit": "µg/mL"}, {"measurement": "MIC", "setting": "[21]", "value": 4, "unit": "µg/mL"}, {"measurement": "MIC", "setting": "[22]", "value": 2, "unit": "µg/mL"}, {"measurement": "MIC", "setting": "[23]", "value": 4, "unit": "µg/mL"}, {"measurement": "MIC", "setting": "[24]", "value": 4, "unit": "µg/mL"}, {"measurement": "MIC", "setting": "[25]", "value": 4, "unit": "µg/mL"}, {"measurement": "MIC", "setting": "[26]", "value": 4, "unit": "µg/mL"}, {"measurement": "MIC", "setting": "[27]", "value": 2, "unit": "µg/mL"}, {"measurement": "C. albicans (MIC)", "setting": "C. albicans", "value": 5, "unit": "µg/mL"}, {"measurement": "number of CFUs in skin biopsy vs controls", "setting": "[28]", "value": "more effective at reducing the number of CFUs than the placebo and fucidin or bactroban"}, {"measurement": "S. aureus (MIC)", "setting": "[29]", "value": 2, "unit": "µg/mL"}, {"measurement": "MIC", "setting": "[30]", "value": 8, "unit": "µg/mL"}, {"measurement": "E. coli (MIC)", "setting": "E. coli", "value": 5, "unit": "µg/mL"}, {"measurement": "P. aeruginosa (MIC)", "setting": "P. aeruginosa", "value": 5, "unit": "µg/mL"}, {"measurement": "MIC", "setting": "[31]", "value": 8, "unit": "µg/mL"}, {"measurement": "MIC", "setting": "[32]", "value": 4, "unit": "µg/mL"}, {"measurement": "MIC", "setting": "[33]", "value": 8, "unit": "µg/mL"}]}]}
